# From ChEMBL document CHEMBL1201862, “PubChem BioAssay data set” (2004)
# Activity calls are given as the source filed them.
# Tests used:
# Melanocortin receptor 4 = Melanocortin receptor 4 (Homo sapiens, UniProt P32245); type: functional, cell-based;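 note: Cell-based assay with luminescence read-out, confirmatory dose-response testing for agonist activity of biased ligands at MC4R; human U2OS cells with tagged receptor and beta-arrestin; potency of agonists that increase receptor coupling to beta-arrestin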
# Chain of Melanocortin receptor 4 (P32245 whole entry): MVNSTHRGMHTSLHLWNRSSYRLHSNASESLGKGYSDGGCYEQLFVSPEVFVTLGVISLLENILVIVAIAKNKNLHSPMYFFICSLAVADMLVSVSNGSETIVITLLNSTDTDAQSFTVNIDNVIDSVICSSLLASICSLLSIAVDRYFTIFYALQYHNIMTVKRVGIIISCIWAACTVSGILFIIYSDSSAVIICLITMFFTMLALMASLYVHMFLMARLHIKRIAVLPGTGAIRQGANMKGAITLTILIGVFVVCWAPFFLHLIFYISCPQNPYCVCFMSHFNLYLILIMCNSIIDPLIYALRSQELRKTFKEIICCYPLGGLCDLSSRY
# [1] = DRD fibroblast viability loss – cell-based, non-viral oncogenic, luminescence, dose response (AID 1934); type: functional; settings: Homo sapiens
# BJ [2] = assay: growth inhibition of engineered Ras-driven BJ cells – cell-based, alamar blue fluorescence, cherrypicked samples, dose response (AID 2631); type: functional; settings: Homo sapiens;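 note: confirmatory dose-response assay in RAS-dependent BJ fibroblasts engineered with TERT, LT and ST, with cytotoxicity read by fluorescence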
# BJ [3] = assay: cells; type: functional, cell-based; settings: Homo sapiens
# [4] = Luminescence Cell-Based Dose Retest to Confirm Inhibitors of Cancer Stem Cells. [Related pubchem assays (depositor defined):AID2717, AID2721]; type: functional; settings: Homo sapiens
# BJ [5] = assay: BJ-TERT-LT-ST fibroblast viability loss – cell-based, RAS-independent, luminescence, dose response (AID 1935); type: functional; settings: Homo sapiens;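 note: BJ fibroblasts immortalized with TERT plus LT and ST oncogenes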
# BJ [6] = assay: BJ-TERT fibroblast viability loss – cell-based, RAS-independent, luminescence, dose response (AID 1933); type: functional; settings: Homo sapiens
# [7] = blockers of CRF-binding protein–CRF-R2 complex – cell-based, uHTS hits, 384-well, dose response (AID 651639); type: functional, Homo sapiens; settings: read-out: IC50_Mean
# [8] = target: T1, Corticotropin-releasing factor receptor 2/Corticotropin-releasing factor-binding protein (Homo sapiens, UniProt P24387+Q13324); assay: Dose Response confirmation of uHTS hits for small molecule antagonists of the CRF-binding protein and CRF-R2 receptor complex.; type: functional; settings: read-out: IC50_Mean
# T1 sequence (Q13324 whole entry): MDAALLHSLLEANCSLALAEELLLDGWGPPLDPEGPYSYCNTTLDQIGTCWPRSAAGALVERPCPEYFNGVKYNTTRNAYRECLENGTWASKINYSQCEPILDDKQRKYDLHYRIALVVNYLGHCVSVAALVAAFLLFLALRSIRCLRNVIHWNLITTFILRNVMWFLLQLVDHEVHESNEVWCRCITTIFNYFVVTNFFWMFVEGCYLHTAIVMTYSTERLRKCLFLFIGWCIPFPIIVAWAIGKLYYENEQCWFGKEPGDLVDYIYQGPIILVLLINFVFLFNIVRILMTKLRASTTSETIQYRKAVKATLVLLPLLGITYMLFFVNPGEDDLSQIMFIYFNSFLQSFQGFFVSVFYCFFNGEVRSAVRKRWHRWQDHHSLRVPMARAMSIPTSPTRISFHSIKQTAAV
# T1 sequence (P24387 whole entry): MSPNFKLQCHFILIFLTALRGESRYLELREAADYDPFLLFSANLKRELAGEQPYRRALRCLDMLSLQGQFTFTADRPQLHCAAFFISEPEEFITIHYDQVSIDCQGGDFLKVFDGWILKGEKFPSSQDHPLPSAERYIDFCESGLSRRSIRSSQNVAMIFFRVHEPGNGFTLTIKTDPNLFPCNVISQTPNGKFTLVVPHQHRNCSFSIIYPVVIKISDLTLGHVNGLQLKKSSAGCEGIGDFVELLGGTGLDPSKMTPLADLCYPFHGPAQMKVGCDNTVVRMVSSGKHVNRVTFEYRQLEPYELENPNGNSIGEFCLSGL
# [9] = target: T1, Corticotropin-releasing factor receptor 2/Corticotropin-releasing factor-binding protein; assay: activators of CRF receptor 2 with binding protein – uHTS hits, confirmation (AID 602473); type: functional; settings: read-out: EC50_Mean
# [10] = target: T2, Sentrin-specific protease 6 (Homo sapiens, UniProt Q9GZR1); type: functional;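 note: Luminescence-based dose-response confirmatory assay of SENP6 inhibition, following up an ultra-high-throughput screen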
# T2 sequence (Q9GZR1 whole entry): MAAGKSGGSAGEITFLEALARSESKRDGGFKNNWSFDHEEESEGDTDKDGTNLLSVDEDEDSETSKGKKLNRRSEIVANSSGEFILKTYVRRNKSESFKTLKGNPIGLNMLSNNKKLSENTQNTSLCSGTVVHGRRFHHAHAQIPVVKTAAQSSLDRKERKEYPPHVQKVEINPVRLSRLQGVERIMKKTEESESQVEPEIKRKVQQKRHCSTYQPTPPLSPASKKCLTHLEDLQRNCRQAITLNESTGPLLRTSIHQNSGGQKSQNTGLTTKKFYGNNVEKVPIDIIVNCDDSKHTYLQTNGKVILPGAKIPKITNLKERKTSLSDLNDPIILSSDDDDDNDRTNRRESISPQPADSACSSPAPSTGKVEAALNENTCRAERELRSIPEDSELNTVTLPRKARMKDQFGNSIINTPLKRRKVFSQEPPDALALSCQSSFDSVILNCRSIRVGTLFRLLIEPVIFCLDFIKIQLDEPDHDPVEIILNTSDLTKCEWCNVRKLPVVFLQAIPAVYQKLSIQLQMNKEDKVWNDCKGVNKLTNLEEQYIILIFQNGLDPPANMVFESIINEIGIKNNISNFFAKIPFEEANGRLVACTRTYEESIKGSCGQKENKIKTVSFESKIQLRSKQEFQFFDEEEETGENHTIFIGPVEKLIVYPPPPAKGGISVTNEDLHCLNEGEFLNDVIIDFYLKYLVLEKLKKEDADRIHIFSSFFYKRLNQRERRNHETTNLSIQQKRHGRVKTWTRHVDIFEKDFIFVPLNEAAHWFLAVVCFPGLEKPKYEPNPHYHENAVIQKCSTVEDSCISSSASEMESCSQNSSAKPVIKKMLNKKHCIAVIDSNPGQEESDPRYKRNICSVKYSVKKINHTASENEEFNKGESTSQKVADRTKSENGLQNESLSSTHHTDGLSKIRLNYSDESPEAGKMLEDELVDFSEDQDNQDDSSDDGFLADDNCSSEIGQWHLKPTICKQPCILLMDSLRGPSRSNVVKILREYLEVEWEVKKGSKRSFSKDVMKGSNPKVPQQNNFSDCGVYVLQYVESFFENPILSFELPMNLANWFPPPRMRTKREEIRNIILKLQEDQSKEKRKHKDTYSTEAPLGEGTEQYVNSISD
# [11] = system: Streptococcus sp. 'group A'; assay: Streptococcus pyogenes SK(-)GAS viability under kanamycin – luminescence, BacTiterGlo, confirmation, counter-screen for streptokinase expression inhibitor project, dose response (AID 1900); type: functional, organism-based
# Caspase-3 = target: T3, Caspase-3 (Homo sapiens, UniProt P42574); type: functional;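 note: Dose-response selectivity test against caspase-3 for candidate inhibitors of sentrin-specific proteases (SENPs)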
# T3 sequence (P42574 whole entry): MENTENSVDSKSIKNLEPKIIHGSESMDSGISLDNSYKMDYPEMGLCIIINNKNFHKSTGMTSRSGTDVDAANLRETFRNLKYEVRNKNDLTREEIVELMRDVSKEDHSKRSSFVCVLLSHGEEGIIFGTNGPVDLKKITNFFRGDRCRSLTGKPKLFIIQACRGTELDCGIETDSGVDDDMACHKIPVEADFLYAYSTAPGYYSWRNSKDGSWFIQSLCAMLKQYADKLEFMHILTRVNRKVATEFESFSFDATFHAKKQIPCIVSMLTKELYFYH
# Streptococcus = assay: GAS UMAA2166 growth inhibition – luminescence, BacTiterGlo, counter-screen for streptokinase expression inhibitor project, dose response (AID 1915); type: functional, organism-based;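 note: potency for reduction of bacterial viability or growth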
# [12] = target: T4, Sentrin-specific protease 8 (Homo sapiens, UniProt Q96LD8); type: functional;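 note: luminescence read-out of SENP8 inhibition, dose-response confirmation following an ultra-high-throughput screen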
# T4 sequence (Q96LD8 whole entry): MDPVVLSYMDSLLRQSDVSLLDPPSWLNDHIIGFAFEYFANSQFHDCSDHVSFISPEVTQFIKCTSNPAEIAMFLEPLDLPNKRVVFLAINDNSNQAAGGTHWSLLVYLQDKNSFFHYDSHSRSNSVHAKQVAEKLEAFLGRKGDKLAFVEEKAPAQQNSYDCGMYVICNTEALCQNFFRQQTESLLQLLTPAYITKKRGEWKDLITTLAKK
# [13] = target: T5, Sentrin-specific protease 7 (Homo sapiens, UniProt Q9BQF6); type: functional;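 note: Luminescence-based dose-response confirmation of ultra-high-throughput screening hits, measuring inhibition of SENP7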
# T5 sequence (Q9BQF6 whole entry): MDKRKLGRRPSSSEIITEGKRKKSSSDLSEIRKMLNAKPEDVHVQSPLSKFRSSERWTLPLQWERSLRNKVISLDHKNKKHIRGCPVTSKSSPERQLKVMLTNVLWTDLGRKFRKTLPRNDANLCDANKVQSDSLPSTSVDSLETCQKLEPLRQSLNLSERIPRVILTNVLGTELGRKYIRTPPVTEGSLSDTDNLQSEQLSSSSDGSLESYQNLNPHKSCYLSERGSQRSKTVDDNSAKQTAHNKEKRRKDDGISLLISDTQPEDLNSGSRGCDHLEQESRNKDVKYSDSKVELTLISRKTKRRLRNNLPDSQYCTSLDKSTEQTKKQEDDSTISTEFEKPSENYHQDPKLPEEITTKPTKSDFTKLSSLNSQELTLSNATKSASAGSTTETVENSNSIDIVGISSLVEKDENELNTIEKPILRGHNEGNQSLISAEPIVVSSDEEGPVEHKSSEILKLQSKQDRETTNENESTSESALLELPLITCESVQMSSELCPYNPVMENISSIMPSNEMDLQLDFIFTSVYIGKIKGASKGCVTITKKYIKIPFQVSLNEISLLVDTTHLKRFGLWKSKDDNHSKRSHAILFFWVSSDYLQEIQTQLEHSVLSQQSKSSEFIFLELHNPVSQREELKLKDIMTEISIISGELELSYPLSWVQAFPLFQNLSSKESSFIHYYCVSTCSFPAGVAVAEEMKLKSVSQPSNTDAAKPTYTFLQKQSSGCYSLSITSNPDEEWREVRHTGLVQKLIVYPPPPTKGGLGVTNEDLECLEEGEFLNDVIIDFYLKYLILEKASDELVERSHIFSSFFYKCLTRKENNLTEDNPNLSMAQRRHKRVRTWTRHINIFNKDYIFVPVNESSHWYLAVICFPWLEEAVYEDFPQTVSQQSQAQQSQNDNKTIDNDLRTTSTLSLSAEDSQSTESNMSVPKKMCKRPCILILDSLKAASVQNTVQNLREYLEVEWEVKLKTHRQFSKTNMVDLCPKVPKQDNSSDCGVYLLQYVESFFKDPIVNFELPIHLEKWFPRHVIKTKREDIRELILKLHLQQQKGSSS
# [14] = target: T6, Calpain-2 catalytic subunit (Sus scrofa, UniProt P43367); assay: m-calpain protease blockers, concentration series – biochemical, fluorogenic peptide substrate, dose response (AID 1420); type: functional
# T6 sequence (P43367 whole entry): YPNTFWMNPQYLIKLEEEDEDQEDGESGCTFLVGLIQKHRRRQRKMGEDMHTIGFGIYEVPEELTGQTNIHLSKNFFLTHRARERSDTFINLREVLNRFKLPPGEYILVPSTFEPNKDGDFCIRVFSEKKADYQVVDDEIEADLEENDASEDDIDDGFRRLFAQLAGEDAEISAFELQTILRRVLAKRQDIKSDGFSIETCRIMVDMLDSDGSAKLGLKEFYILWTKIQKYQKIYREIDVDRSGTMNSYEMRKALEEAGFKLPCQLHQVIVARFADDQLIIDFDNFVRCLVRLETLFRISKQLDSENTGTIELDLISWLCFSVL
# [15] = loss of viability in HepG2 cells – cell-based, CellTiter-Glo, cherry-picked, cytotoxicity control for Shn3 inhibitor project, dose response (AID 624134); type: functional
# [16] = target: FAD-linked sulfhydryl oxidase ALR (Homo sapiens, UniProt P55789); assay: ALR-catalysed DTT oxidation blockers – biochemical, H2O2 detection, luminescence, cherry-pick, dose response (AID 493248)
# Chain of FAD-linked sulfhydryl oxidase ALR (P55789 whole entry): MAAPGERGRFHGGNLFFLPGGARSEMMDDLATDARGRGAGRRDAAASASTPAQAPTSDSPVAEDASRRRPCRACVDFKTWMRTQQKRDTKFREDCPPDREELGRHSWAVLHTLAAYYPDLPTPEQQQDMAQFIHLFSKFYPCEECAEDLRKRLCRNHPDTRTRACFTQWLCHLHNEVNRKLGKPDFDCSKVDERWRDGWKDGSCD
# Large T antigen = Large T antigen (Simian virus 40, UniProt P03070); type: functional, Betapolyomavirus macacae;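 note: Confirmatory-stage PubChem screen for compounds that inhibit SV40 T antigen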
# Chain of Large T antigen (P03070 whole entry): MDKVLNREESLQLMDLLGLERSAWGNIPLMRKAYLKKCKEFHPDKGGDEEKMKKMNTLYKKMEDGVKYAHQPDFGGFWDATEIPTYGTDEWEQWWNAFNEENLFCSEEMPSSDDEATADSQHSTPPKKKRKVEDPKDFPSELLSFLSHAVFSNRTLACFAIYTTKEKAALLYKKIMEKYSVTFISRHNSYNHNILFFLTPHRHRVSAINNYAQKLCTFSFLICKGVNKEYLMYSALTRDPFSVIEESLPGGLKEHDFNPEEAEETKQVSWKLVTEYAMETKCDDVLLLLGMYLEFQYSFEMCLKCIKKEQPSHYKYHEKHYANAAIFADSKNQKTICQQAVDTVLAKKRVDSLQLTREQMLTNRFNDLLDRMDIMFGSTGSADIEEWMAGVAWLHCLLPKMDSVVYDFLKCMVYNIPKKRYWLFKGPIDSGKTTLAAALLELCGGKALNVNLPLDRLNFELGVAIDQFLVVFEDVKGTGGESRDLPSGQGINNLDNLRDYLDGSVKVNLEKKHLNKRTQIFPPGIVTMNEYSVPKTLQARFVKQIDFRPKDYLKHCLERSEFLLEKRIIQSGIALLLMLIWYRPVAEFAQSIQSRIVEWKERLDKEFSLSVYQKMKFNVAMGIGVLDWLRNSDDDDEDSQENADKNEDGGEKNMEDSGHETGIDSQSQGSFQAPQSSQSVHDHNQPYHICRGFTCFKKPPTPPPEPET
# [17] = reduction of Shn3 3'UTR-driven luciferase in osteoblasts – cell-based, Clone20 osteoblasts, firefly luciferase, cherry-picked, dose response (AID 624132); type: functional;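 note: firefly luciferase luminescence from reporter carrying the Shn3 3'UTR in osteoblasts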
# [18] = non-specific 3'UTR reporter inhibition in Clone20-Shn3RL – cell-based, Renilla luciferase, cherry-picked, counter-screen for Shn3 inhibitor project, dose response (AID 624133); type: functional
# Paired box protein Pax-8 = Paired box protein Pax-8 (Homo sapiens, UniProt Q06710); assay: PAX8 transcriptional activity inhibition in RMG-I – RMG-I cells, luciferase, cherry-pick, dose response (AID 687027); type: functional, cell-based;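 note: luciferase reporter driven by Pax8 target thyroperoxidase promoter measured by SteadyGlo luminescence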
# Chain of Paired box protein Pax-8 (Q06710 whole entry): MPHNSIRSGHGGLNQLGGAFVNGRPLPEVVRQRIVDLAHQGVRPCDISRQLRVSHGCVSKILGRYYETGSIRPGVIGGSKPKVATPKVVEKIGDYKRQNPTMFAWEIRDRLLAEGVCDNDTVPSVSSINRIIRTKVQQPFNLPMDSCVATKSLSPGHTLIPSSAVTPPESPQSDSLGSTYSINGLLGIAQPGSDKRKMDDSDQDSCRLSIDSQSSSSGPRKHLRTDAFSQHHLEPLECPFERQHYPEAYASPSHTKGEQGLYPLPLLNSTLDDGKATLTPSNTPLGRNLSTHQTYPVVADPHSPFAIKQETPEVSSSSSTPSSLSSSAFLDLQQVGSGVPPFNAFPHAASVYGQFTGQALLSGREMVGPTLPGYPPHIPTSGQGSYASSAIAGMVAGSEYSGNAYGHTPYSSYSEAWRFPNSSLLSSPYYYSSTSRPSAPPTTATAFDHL
# INS1 = assay: INS-1E survival protection against cytokine death – cell-based, luminescence, retest, dose response (AID 449756); type: functional; settings: Rattus norvegicus;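 note: cell death triggered by IL-1 beta plus TNF-alpha plus IFN-gamma mixture; protective hits raise ATP signal compared with cytokine alone wells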
smiles,measurement,setting,value
CCc1ccc(CCC(=O)Nc2ncc(Cc3ccccc3Cl)s2)o1,EC50,Melanocortin receptor 4,> 89.2 µM (inactive)
same,EC50,[1],3.72 µM (active)
same,EC50,BJ [2],1.83 µM (active)
same,EC50,BJ [3],14 µM (active)
same,AC50,[4],0.184 µM (active)
same,EC50,BJ [5],2.83 µM (active)
same,EC50,BJ [6],2.76 µM (active)
O=C(CC(c1ccccc1)c1ccccc1O)NCc1ccccc1Cl (stereo not drawn),IC50,[7],> 20 µM (inactive)
same,IC50,[8],2.7 µM (active)
same,EC50,[9],> 53 µM (inactive)
COc1cc(O)c(CC=C(C)C)c(O)c1C(=O)CCc1ccc(O)cc1 [DIHYDROXANTHOHUMOL],EC50,Melanocortin receptor 4,> 89.2 µM (inactive)
same,IC50,[10],10 µM (active)
same,EC50,[11],2.79 µM (active)
same,IC50,Caspase-3,> 100 µM (inactive)
same,EC50,Streptococcus,3.05 µM (active)
same,IC50,[12],13.3 µM (active)
same,IC50,[13],7.82 µM (active)
same,IC50,[14],5 µM (not active)
CC(C)(C)NC(=O)NC(=O)CN1CCN(c2ccc(O)cc2)CC1,AC50,[15],67.2 µM (active)
same,AC50,[16],4.04 µM (active)
same,IC50,Large T antigen,21.2 µM (active)
same,AC50,[17],1.9 µM (active)
same,AC50,[18],5.88 µM (active)
same,IC50,[14],19.1 µM (not active)
CCC(C)C1NC(=O)C(NC(=O)C(CC(C)C)N(C)C(=O)C2CCCN2C(=O)C(C)O)C(C)OC(=O)C(Cc2ccc(OC)cc2)N(C)C(=O)C2CCCN2C(=O)C(CC(C)C)NC(=O)[C@H](C)C(=O)[C@H](C(C)C)OC(=O)CC1O (stereo partly drawn),AC50,[15],> 70 µM (inactive)
same,AC50,[17],< 0.26 µM (active)
same,AC50,[18],< 0.26 µM (active)
same,AC50,Paired box protein Pax-8,< 0.26 µM (active)
c1ccc(CNc2c(-c3cccc(SC4CCCCC4)c3)nc3ccccn23)cc1,AC50,[15],> 70 µM (inactive)
same,AC50,INS1,5.06 µM (active)
same,AC50,[17],3.46 µM (active)
same,AC50,[18],6.09 µM (active)
same,AC50,[4],5.29 µM (active)
